The values that follow come from patent publication US20120142646A1, “Novel Compounds 621” (priority 2006, published 2012).

The structures appear in SMILES notation. Where a name gives a salt, the structure may show the parent alone.

For this assay, the target named is T1, Adrenergic β2 (Homo sapiens, UniProt P07550).
T1 construct: Adherent H292 cells were removed from tissue culture flasks; endogenous in cells; host or cells: H292 cells
T1 sequence (P07550 whole entry): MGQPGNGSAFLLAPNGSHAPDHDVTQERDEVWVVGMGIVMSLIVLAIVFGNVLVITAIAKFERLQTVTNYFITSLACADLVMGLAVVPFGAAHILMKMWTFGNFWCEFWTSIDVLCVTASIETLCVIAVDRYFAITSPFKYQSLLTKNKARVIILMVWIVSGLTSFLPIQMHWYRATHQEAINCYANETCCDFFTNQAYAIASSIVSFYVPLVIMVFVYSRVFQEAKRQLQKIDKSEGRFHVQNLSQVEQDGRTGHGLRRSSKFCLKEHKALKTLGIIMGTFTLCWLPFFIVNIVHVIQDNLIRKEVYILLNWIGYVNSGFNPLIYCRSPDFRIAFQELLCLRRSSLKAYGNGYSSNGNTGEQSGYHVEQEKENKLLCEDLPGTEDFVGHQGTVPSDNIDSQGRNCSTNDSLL
The assay is described as follows: Adrenergic β2 mediated cAMP production in H292 cells (AlphaScreen cAMP detection). In kind it is cell-based. Details: key to β2 Int Act: fraction of formoterol maximum activity (formoterol = 1). As to conditions: Intrinsic Activity as a fraction relative to the maximum activity determined for formoterol. The gist of the method: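 H292 cells pre-treated 10 min with rolipram (300 μM final), then given agonist for 60 min at room temperature in HBSS/10 mM HEPES pH 7.4, 1.6% DMSO final. Lysate cAMP measured by AlphaScreen against a cAMP standard curve. Four-parameter fit gives pEC50; intrinsic activity relative to formoterol maximum.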
`CCCC[C@@H](C)N(CCNCCc1ccc(O)c2c1OCC(=O)N2)C(=O)CCNCCc1ccc(Cl)c(Cl)c1` [Example 55, (R)-3-(3,4-Dichlorophenethylamino)-N-(hexan-2-yl)-N-(2-(2-(5-hydroxy-3-oxo-3,4-dihydro-2H-benzo[b][1,4]oxazin-8-yl)ethylamino)ethyl)propanamide bis(trifluoroacetate)]: the “β2 Int Act” value came to 0.92.

`CCCC[C@@H](C)N(CCNCCc1ccc(O)c2c1OCC(=O)N2)C(=O)CCNCCc1cc(C)ccc1F` [Example 56, (R)-3-(2-Fluoro-5-methylphenethylamino)-N-(hexan-2-yl)-N-(2-(2-(5-hydroxy-3-oxo-3,4-dihydro-2H-benzo[b][1,4]oxazin-8-yl)ethylamino)ethyl)propanamide bis(trifluoroacetate)]: the “β2 Int Act” value is on record as 0.91.

On to `CCCC[C@@H](C)N(CCNCCc1ccc(O)c2c1OCC(=O)N2)C(=O)CCNCCc1cc(F)ccc1C` [Example 57, (R)-3-(5-Fluoro-2-methylphenethylamino)-N-(hexan-2-yl)-N-(2-(2-(5-hydroxy-3-oxo-3,4-dihydro-2H-benzo[b][1,4]oxazin-8-yl)ethylamino)ethyl)propanamide bis(trifluoroacetate)], for which the “β2 Int Act” value worked out at 0.91.

For `CC[C@@H](C)N(CCNCCc1ccc(O)c2c1OCC(=O)N2)C(=O)CCNCCc1ccc(Cl)c(Cl)c1` [Example 58, (R)—N-sec-Butyl-3-(3,4-dichlorophenethylamino)-N-(2-(2-(5-hydroxy-3-oxo-3,4-dihydro-2H-benzo[b][1,4]oxazin-8-yl)ethylamino)ethyl)propanamide dihydrochloride], the “β2 Int Act” value was 0.91.

In the case of `CC(C)[C@@H](C)N(CCNCCc1ccc(O)c2c1OCC(=O)N2)C(=O)CCNCCc1ccc(Cl)c(Cl)c1` [Example 59, (R)-3-(3,4-Dichlorophenethylamino)-N-(2-(2-(5-hydroxy-3-oxo-3,4-dihydro-2H-benzo[b][1,4]oxazin-8-yl)ethylamino)ethyl)-N-(3-methylbutan-2-yl)propanamide dihydrochloride], the “β2 Int Act” value is reported as 0.87.

On to `C[C@H](C1CCCCC1)N(CCNCCc1ccc(O)c2c1OCC(=O)N2)C(=O)CCNCCc1ccccc1` [Example 61, (R)—N-(1-Cyclohexylethyl)-N-(2-(2-(5-hydroxy-3-oxo-3,4-dihydro-2H-benzo[b][1,4]oxazin-8-yl)ethylamino)ethyl)-3-(phenethylamino)propanamide bis(trifluoroacetate)], for which the “β2 Int Act” value is 0.84.

Turning to `Cc1cc(CCNCCC(=O)N(CCNCCc2ccc(O)c3c2OCC(=O)N3)C2CCCCCC2)ccc1F` [Example 62, N-Cycloheptyl-3-(4-fluoro-3-methylphenethylamino)-N-(2-(2-(5-hydroxy-3-oxo-3,4-dihydro-2H-benzo[b][1,4]oxazin-8-yl)ethylamino)ethyl)propanamide bis(trifluoroacetate)], the “β2 Int Act” value is 0.86.

For `O=C1COc2c(CCNCCN(C(=O)CCNCCc3ccc(Cl)cc3)C3CCCCCC3)ccc(O)c2N1` [Example 63, 3-(4-Chlorophenethylamino)-N-cycloheptyl-N-(2-(2-(5-hydroxy-3-oxo-3,4-dihydro-2H-benzo[b][1,4]oxazin-8-yl)ethylamino)ethyl)propanamide bis(trifluoroacetate)], the “β2 Int Act” value stood at 0.79.

Take `O=C1COc2c(CCNCCN(C(=O)CCNCCc3cc(F)ccc3F)C3CCCCCC3)ccc(O)c2N1` [Example 64, N-Cycloheptyl-3-(2,5-difluorophenethylamino)-N-(2-(2-(5-hydroxy-3-oxo-3,4-dihydro-2H-benzo[b][1,4]oxazin-8-yl)ethylamino)ethyl)propanamide bis(trifluoroacetate)]: the “β2 Int Act” value came out at 0.88.

Regarding `O=C1COc2c(CCNCCN(C(=O)CCNCCc3cc(F)cc(F)c3)C3CCCCCC3)ccc(O)c2N1` [Example 65, N-Cycloheptyl-3-(3,5-difluorophenethylamino)-N-(2-(2-(5-hydroxy-3-oxo-3,4-dihydro-2H-benzo[b][1,4]oxazin-8-yl)ethylamino)ethyl)propanamide bis(trifluoroacetate)], the “β2 Int Act” value is recorded as 0.93.

Consider `O=C1COc2c(CCNCCN(C(=O)CCNCCc3cc(F)cc(Cl)c3)C3CCCCCC3)ccc(O)c2N1` [Example 66, 3-(3-Chloro-5-fluorophenethylamino)-N-cycloheptyl-N-(2-(2-(5-hydroxy-3-oxo-3,4-dihydro-2H-benzo[b][1,4]oxazin-8-yl)ethylamino)ethyl)propanamide bis(trifluoroacetate)], for which the “β2 Int Act” value worked out at 0.99.

On to `O=C1COc2c(CCNCCN(C(=O)CCNCCc3ccc(F)c(F)c3)C3CCCCCC3)ccc(O)c2N1` [Example 67, N-Cycloheptyl-3-(3,4-difluorophenethylamino)-N-(2-(2-(5-hydroxy-3-oxo-3,4-dihydro-2H-benzo[b][1,4]oxazin-8-yl)ethylamino)ethyl)propanamide bis(trifluoroacetate)], for which the “β2 Int Act” value is 0.87.

With `O=C1COc2c(CCNCCN(C(=O)CCNCCc3cccc(Cl)c3)C3CCCCCC3)ccc(O)c2N1` [Example 68, 3-(3-Chlorophenethylamino)-N-cycloheptyl-N-(2-(2-(5-hydroxy-3-oxo-3,4-dihydro-2H-benzo[b][1,4]oxazin-8-yl)ethylamino)ethyl)propanamide bis(trifluoroacetate)], the “β2 Int Act” value came to 0.93.

As to `O=C1COc2c(CCNCCN(C(=O)CCNCCc3cccc(F)c3)C3CCCCCC3)ccc(O)c2N1` [Example 69, N-Cycloheptyl-3-(3-fluorophenethylamino)-N-(2-(2-(5-hydroxy-3-oxo-3,4-dihydro-2H-benzo[b][1,4]oxazin-8-yl)ethylamino)ethyl)propanamide bis(trifluoroacetate)], the “β2 Int Act” value amounted to 0.88.

In the case of `O=C1COc2c(CCNCCN(C(=O)CCOCCc3ccccc3)C3CCCCC3)ccc(O)c2N1` [Example 70, N-Cyclohexyl-N-(2-(2-(5-hydroxy-3-oxo-3,4-dihydro-2H-benzo[b][1,4]oxazin-8-yl)ethylamino)ethyl)-3-phenethoxypropanamide trifluoroacetate], the “β2 Int Act” value amounted to 0.97.

As for `Cl.O=C(CCOCCc1ccc(F)cc1)N(CCNCCc1ccc(O)c2[nH]c(=O)ccc12)C1CCCCC1` [Example 71, N-Cyclohexyl-3-(4-fluorophenethoxy)-N-(2-(2-(8-hydroxy-2-oxo-1,2-dihydroquinolin-5-yl)ethylamino)ethyl)propanamide hydrochloride], the “β2 Int Act” value turned out to be 0.85.

Take `Cl.O=C(CCOCCc1cccc(F)c1)N(CCNCCc1ccc(O)c2[nH]c(=O)ccc12)C1CCCCC1` [Example 72, N-Cyclohexyl-3-(3-fluorophenethoxy)-N-(2-(2-(8-hydroxy-2-oxo-1,2-dihydroquinolin-5-yl)ethylamino)ethyl)propanamide hydrochloride]: the “β2 Int Act” value worked out at 0.92.

Regarding `Cl.O=C(CCOCCc1ccccc1F)N(CCNCCc1ccc(O)c2[nH]c(=O)ccc12)C1CCCCC1` [Example 73, N-Cyclohexyl-3-(2-fluorophenethoxy)-N-(2-(2-(8-hydroxy-2-oxo-1,2-dihydroquinolin-5-yl)ethylamino)ethyl)propanamide hydrochloride], the “β2 Int Act” value stood at 0.94.

Consider `O=C1COc2c(CCNCCN(C(=O)CCOCCc3cccc(F)c3)C3CCCCC3)ccc(O)c2N1` [Example 74, N-Cyclohexyl-3-(3-fluorophenethoxy)-N-(2-(2-(5-hydroxy-3-oxo-3,4-dihydro-2H-benzo[b][1,4]oxazin-8-yl)ethylamino)ethyl)propanamide trifluoroacetate], for which the “β2 Int Act” value is 0.97.

With `O=C1COc2c(CCNCCN(C(=O)CCOCCc3ccc(F)cc3)C3CCCCC3)ccc(O)c2N1` [Example 75, N-Cyclohexyl-3-(4-fluorophenethoxy)-N-(2-(2-(5-hydroxy-3-oxo-3,4-dihydro-2H-benzo[b][1,4]oxazin-8-yl)ethylamino)ethyl)propanamide trifluoroacetate], the “β2 Int Act” value turned out to be 0.96.

Consider `O=C1COc2c(CCNCCN(C(=O)CCOCCc3ccccc3F)C3CCCCC3)ccc(O)c2N1` [Example 76, N-Cyclohexyl-3-(2-fluorophenethoxy)-N-(2-(2-(5-hydroxy-3-oxo-3,4-dihydro-2H-benzo[b][1,4]oxazin-8-yl)ethylamino)ethyl)propanamide trifluoroacetate], for which the “β2 Int Act” value came to 1.1.

As to `O=C1COc2c(CCNCCN(C(=O)CCOCCc3cccc(Cl)c3)C3CCCCC3)ccc(O)c2N1` [Example 77, 3-(3-Chlorophenethoxy)-N-cyclohexyl-N-(2-(2-(5-hydroxy-3-oxo-3,4-dihydro-2H-benzo[b][1,4]oxazin-8-yl)ethylamino)ethyl)propanamide trifluoroacetate], the “β2 Int Act” value is given as 0.97.

`CC[C@@H](C)N(CCNCCc1ccc(O)c2[nH]c(=O)ccc12)C(=O)CCOCCc1ccccc1.Cl` [Example 79, (R)—N-sec-Butyl-N-(2-(2-(8-hydroxy-2-oxo-1,2-dihydroquinolin-5-yl)ethylamino)ethyl)-3-phenethoxypropanamide hydrochloride]: the “β2 Int Act” value amounted to 0.92.
